In US11214803B2, “Modulators of YAP1 expression” (Ionis Pharmaceuticals, Inc., priority 2019, dated 2022):
Strand notation (5' to 3'): a small letter for the sugar, then the base; units joined by * are phosphorothioate-linked, units joined directly phosphodiester-linked; [ ] holds rarer units or linkages, { } end groups; capitals alone tell only the bases. e = 2'-O-(2-methoxyethyl) (MOE); k = constrained ethyl (cEt); [5mC] = 5-methylcytosine; d = 2'-deoxy (DNA); m = 2'-O-methyl

These substances were tested on Yap1 mRNA (assay: Antisense inhibition of human Yap1 in SNU-449 cells by modified oligonucleotides, single dose (Example 5, RTS36584)). Settings: Table 39; SNU-449 cells, 10,000 cells per well, free uptake, 2,000 nM oligonucleotide, approx. 48 hours; RTS36584; normalized to RIBOGREEN; Yap1 mRNA relative to untreated control.
Assay type: cell-based
Method in brief: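 SNU-449 cells (10,000/well) took up 2,000 nM oligonucleotide by free uptake for about 48 h. Yap1 mRNA was measured by qRT-PCR with primer probe set RTS36584 and normalised to RIBOGREEN total RNA. Values are % of untreated control; asterisked oligos target the amplicon region.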

Row | Substance | YAP1 (% UTC)
1 | 1198396 (kA*d[5mC]*dT*dT*dT*dT*dA*d[5mC]*dA*dT*dT*kA*eG*kG*eA*kA; antisense) [Compound 1198396] | 25 % UTC
2 | 1198418 (kT*d[5mC]*dA*dG*dA*dT*dT*dT*dA*dG*dG*kA*eT*kG*e[5mC]*kA; antisense) [Compound 1198418] | 67 % UTC
3 | 1198391 (kG*dA*dG*dG*dT*dA*dT*dA*dA*d[5mC]*dT*kG*eG*kG*e[5mC]*kA) [Compound 1198391] | 29 % UTC
4 | 1095397 (antisense kT*dG*dA*dG*dG*dT*dA*dT*dA*dA*d[5mC]*kT*eG*kG*eG*k[5mC]) [Compound 1095397] | 53 % UTC
5 | 1198455 (kT*dT*dA*dG*dA*d[5mC]*dT*dA*dA*dG*dT*kA*eA*kG*eG*kT) [Compound 1198455] | 42 % UTC
6 | 1198404 (kT*dT*dT*dG*dG*dA*dA*dG*dA*dT*d[5mC]*kT*eG*kA*eA*kA) [Compound 1198404] | 55 % UTC

Same assay, conditions: Table 40 (separate experiment); SNU-449 cells, 10,000 cells per well, free uptake, 2,000 nM oligonucleotide, approx. 48 hours; RTS36584; normalized to RIBOGREEN; Yap1 mRNA relative to untreated control

Row | Substance | YAP1 (% UTC)
7 | 1198767 (kA*eT*kT*d[5mC]*dA*dG*dA*dT*dT*dT*dA*dG*eG*eA*kT*kG; antisense) [Compound 1198767] | 65 % UTC
8 | 1198766 (kT*e[5mC]*kA*dG*dA*dT*dT*dT*dA*dG*dG*dA*eT*eG*k[5mC]*kA; antisense) [Compound 1198766] | 19 % UTC
9 | 1198802 (antisense kA*eG*kA*d[5mC]*dT*dA*dA*dG*dT*dA*dA*dG*eG*eT*kT*kT) [Compound 1198802] | 83 % UTC
10 | 1198427 (k[5mC]*dA*dA*d[5mC]*dT*d[5mC]*dT*dT*dA*dT*dA*kT*eG*kG*eT*kT; antisense) [Compound 1198427] | 62 % UTC

Same assay, conditions: Table 41; SNU-449 cells, 10,000 cells per well, free uptake, 2,000 nM modified oligonucleotide, approximately 48 hours; RTS36584; normalized to RIBOGREEN; Yap1 mRNA relative to untreated control cells

Row | Substance | YAP1 (% UTC)
11 | 1198664 (antisense kG*k[5mC]*dT*dT*dT*dG*dG*dA*dA*dG*dA*dT*k[5mC]*eT*kG*eA) [Compound 1198664] | 18 % UTC
12 | 1198791 (antisense kT*eT*kA*dA*dA*dG*dT*dG*dT*dA*dT*dG*eT*e[5mC]*kA*kG) [Compound 1198791] | 39 % UTC
13 | 1198662 (antisense kT*kT*dT*dG*dG*dA*dA*dG*dA*dT*d[5mC]*dT*kG*eA*kA*eA) [Compound 1198662] | 83 % UTC
14 | 1198738 (kA*e[5mC]*kT*dG*dA*dG*dG*dT*dA*dT*dA*dA*e[5mC]*eT*kG*kG; antisense) [Compound 1198738] | 38 % UTC

Same assay, conditions: Table 42 (separate experiment); SNU-449 cells, 10,000 cells per well, free uptake, 2,000 nM modified oligonucleotide, approximately 48 hours; RTS36584; normalized to RIBOGREEN; Yap1 mRNA relative to untreated control cells

Row | Substance | YAP1 (% UTC)
15 | 1198696 (antisense kT*kG*dT*dA*dT*dG*dT*d[5mC]*dA*dG*dA*dA*kG*eA*kG*eT) [Compound 1198696] | 12 % UTC
16 | 1198682 (antisense k[5mC]*kT*d[5mC]*dT*dT*dA*dT*dA*dT*dG*dG*dT*kT*eT*kT*eG) [Compound 1198682] | 25 % UTC
17 | 1198697 (antisense kA*kG*dT*dG*dT*dA*dT*dG*dT*d[5mC]*dA*dG*kA*eA*kG*eA) [Compound 1198697] | 12 % UTC
18 | 1198212 (kT*kA*dT*dT*dA*dG*dA*dG*dT*dA*dT*eG*eT*eG*kG*k[5mC]; antisense) [Compound 1198212] | 17 % UTC
19 | 1198683 (antisense kA*k[5mC]*dT*d[5mC]*dT*dT*dA*dT*dA*dT*dG*dG*kT*eT*kT*eT) [Compound 1198683] | 27 % UTC
20 | 1198202 (kG*kA*dA*dA*dT*dT*dG*dT*d[5mC]*dT*d[5mC]*eA*eT*eG*k[5mC]*k[5mC]; antisense) [Compound 1198202] | 14 % UTC

Same assay, conditions: Table 43 experiment; SNU-449 cells, 10,000 cells per well, free uptake, 2,000 nM, approximately 48 hours; RTS36584; Yap1 mRNA normalized to RIBOGREEN, relative to untreated control cells

Row | Substance | YAP1 (% UTC)
21 | 1198217 (kG*kG*dT*dA*dT*dA*dA*d[5mC]*dT*dG*dG*eG*e[5mC]*eA*kA*kA; antisense) [Compound 1198217] | 57 % UTC
22 | 1198465 (antisense kA*kG*dT*dA*dT*dG*dT*dG*dG*d[5mC]*dA*eA*kT*eA*kA*eT) [Compound 1198465] | 68 % UTC
23 | 1198258 (kA*kT*dA*dT*dT*dG*d[5mC]*dA*dA*dT*d[5mC]*eT*eG*eT*k[5mC]*kT; antisense) [Compound 1198258] | 52 % UTC

Same assay, conditions: Table 44 experiment; SNU-449 cells, 10,000 cells per well, free uptake, 2,000 nM, approximately 48 hours; RTS36584; Yap1 mRNA normalized to RIBOGREEN, relative to untreated control cells

Row | Substance | YAP1 (% UTC)
24 | 1198540 (antisense kA*kG*dA*d[5mC]*dT*dA*dA*dG*dT*dA*dA*eG*kG*eT*kT*eT) [Compound 1198540] | 51 % UTC
25 | 1198497 (antisense kA*kG*dG*dA*dT*dG*d[5mC]*dA*dT*dG*dG*eT*kT*eT*kT*eT) [Compound 1198497] | 22 % UTC
26 | 1198515 (kA*kT*dT*dG*d[5mC]*dA*dA*dT*d[5mC]*dT*dG*eT*k[5mC]*eT*kG*eA; antisense) [Compound 1198515] | 44 % UTC

Same assay, conditions: Table 45; Yap1 mRNA as percent of untreated control, SNU-449 cells, single dose

Row | Substance | YAP1 (% UTC)
27 | 1198911 (kG*kA*dG*dG*dT*dA*dT*dA*dA*d[5mC]*dT*kG*dG*kG*d[5mC]*kA; antisense) [Compound 1198911] | 26 % UTC
28 | 1198963 (kT*kT*dA*dA*dA*dG*dT*dG*dT*dA*dT*kG*dT*k[5mC]*dA*kG; antisense) [Compound 1198963] | 27 % UTC

Same assay, conditions: Table 46; Yap1 mRNA as percent of untreated control, SNU-449 cells, single dose

Row | Substance | YAP1 (% UT)
29 | 1198847 (kT*kT*dT*dA*dG*dG*dA*dT*dG*d[5mC]*dA*kT*eG*kG*eT*kT; antisense) [Compound 1198847] | 51 % UT
30 | 1198849 (kG*kA*dT*dT*dT*dA*dG*dG*dA*dT*dG*k[5mC]*eA*kT*eG*kG; antisense) [Compound 1198849] | 42 % UT

Same assay, conditions: Table 48; Yap1 mRNA level relative to untreated control; modified oligonucleotides targeting SEQ ID NO.: 1 and 2

Row | Substance | YAP1 (% UT)
31 | 1097224 (antisense k[5mC]*kT*k[5mC]*dT*dT*dA*dT*dA*dT*dG*dG*dT*dT*kT*kT*kG) [Compound 1097224] | 22 % UT
32 | 1198299 (ATATTAGAGTATGTGG; chemistry not fully specified) [Compound 1198299] | 27 % UT
33 | 1198332 (kT*k[5mC]*kA*dG*dA*dT*dT*dT*dA*dG*dG*dA*kT*eG*k[5mC]*eA; antisense) [Compound 1198332] | 58 % UT
34 | 1076439 (k[5mC]*kT*kT*dA*dT*dA*dT*dG*dG*dT*dT*dT*dT*kG*kT*kG) [Compound 1076439] | 31 % UT

Same assay, conditions: Table 49; Yap1 mRNA level relative to untreated control; modified oligonucleotides targeting SEQ ID NO.: 1 and 2

Row | Substance | YAP1 (% UT)
35 | 1198367 (kG*kA*k[5mC]*dT*dA*dA*dG*dT*dA*dA*dG*dG*kT*eT*kT*e[5mC]; antisense) [Compound 1198367] | 58 % UT

Same assay, conditions: Table 50; Yap1 mRNA remaining as percent of untreated control (UT), SNU-449 cells, single dose

Row | Substance | YAP1 (% UT)
36 | 1198561 (antisense kG*kG*kT*dA*dT*dA*dA*d[5mC]*dT*dG*dG*dG*k[5mC]*kA*kA*eA) [Compound 1198561] | 29 % UT
37 | 1198592 (antisense kA*kT*kA*dT*dG*dG*dT*dT*dT*dT*dG*dT*kG*kT*kG*eT) [Compound 1198592] | 50 % UT

Same assay, conditions: Table 51; Yap1 mRNA remaining as percent of untreated control (UT), SNU-449 cells, single dose

Row | Substance | YAP1 (% UT)
38 | 1197252 (antisense k[5mC]*kT*kT*dT*mG*dG*dA*dA*dG*dA*dT*d[5mC]*dT*kG*kA*kA) [Compound 1197252] | 53 % UT
39 | 1197296 (kT*kG*k[5mC]*dT*mU*dT*dG*dG*dA*dA*dG*dA*dT*k[5mC]*kT*kG) [Compound 1197296] | 36 % UT

Same assay, conditions: Table 52; Yap1 mRNA, modified oligonucleotides targeting SEQ ID NO: 1 and 2

Row | Substance | YAP1 (% UT)
40 | 1200853 (kA*kT*kG*dT*dA*mA*dT*dA*dT*dT*dG*d[5mC]*dA*kA*kT*k[5mC]; antisense) [Compound 1200853] | 69 % UT
41 | 1200867 (kA*kA*kG*dT*dA*mA*dG*dG*dT*dT*dT*d[5mC]*d[5mC]*k[5mC]*kA*kG; antisense) [Compound 1200867] | 38 % UT
42 | 1200825 (kT*kG*k[5mC]*dT*dT*mU*dG*dG*dA*dA*dG*dA*dT*k[5mC]*kT*kG; antisense) [Compound 1200825] | 39 % UT
43 | 1200791 (kA*kT*kG*dG*dA*mA*dA*dT*dT*dG*dT*d[5mC]*dT*k[5mC]*kA*kT; antisense) [Compound 1200791] | 46 % UT
44 | 1200859 (kA*kA*kA*dG*dT*mG*dT*dA*dT*dG*dT*d[5mC]*dA*kG*kA*kA; antisense) [Compound 1200859] | 28 % UT
45 | 1200832 (kA*kT*kT*dT*dA*mG*dG*dA*dT*dG*d[5mC]*dA*dT*kG*kG*kT; antisense) [Compound 1200832] | 61 % UT

Same assay, conditions: Yap1 mRNA, percent of untreated control; modified oligonucleotides targeting SEQ ID NO: 1 and 2; Table 47

Row | Substance | YAP1 (% UT)
46 | 1076187 (kG*kA*kT*dT*dT*dA*dG*dG*dA*dT*dG*d[5mC]*dA*kT*kG*kG; antisense) [Compound 1076187] | 17 % UT
47 | 1198859 (kA*k[5mC]*dT*d[5mC]*dT*dT*dA*dT*dA*dT*dG*kG*eT*kT*eT*kT; antisense) [Compound 1198859] | 33 % UT
48 | 1076186 (kA*kT*kT*dT*dA*dG*dG*dA*dT*dG*d[5mC]*dA*dT*kG*kG*kT) [Compound 1076186] | 31 % UT
49 | 1197185 (antisense kA*kA*kG*d[5mC]*dA*d[5mC]*dT*dT*dT*dT*dA*d[5mC]*dA*kT*kT*kA) [Compound 1197185] | 55 % UT
50 | 1074799 (kT*kG*k[5mC]*dT*dT*dT*dG*dG*dA*dA*dG*dA*dT*k[5mC]*kT*kG) [Compound 1074799] | 21 % UT
